What was measured:
[1] = system: heparin-binding sites of the vascular wall (rat aorta); assay: Binding to rat aortic rings, detected by EPR (X-band) after wash with Krebs; conditions: for replacement of heparin-nitroxide from heparin-binding sites of rat aorta by dextran: 100 μM H—NR-2, 1 hr, 37° C., with 1 mM or 10 mM dextran (up to 100 molar excess)
Procedure: Therefore, the heparin-nitroxide derivative of the present invention is able to specifically bind with high affinity to specific sites in biological vessels.
FIG. 4. Spectra EPR, (A) 10 μM H—NR-1 solution; (B) rat aortic ring (3 mm long) pre-incubated with 10 μM H—NR-1 for 1 hour and then washed 3 times with Krebs buffer; (C) rat aortic ring (3 mm long) pre-incubated with 10 μM H—NR-1 in the presence of heparin (liquemin, 30 units/ml) for 1 hour and then washed 3 times with Krebs buffer; (D) 5 μM 4-hydroxy-TEMPO; (E) rat aortic ring (3 mm long) pre-incubated with 10 μM 4-hydroxy-TEMPO for 1 hour and then washed 3 times with Krebs buffer. EPR spectra were recorded at room temperature using an X-band radiospectrometer MS200 (Magnettech GmbH, Berlin). Instrument parameters were 10 mW microwave power, 0.1 mT amplitude modulation, 100 kHz modulation frequency, sweep field 5 mT and 60 s sweep time. Representative spectra of 3 experiments are shown.
FIG. 5. The binding of H—NR-1 to rat aorta as a function of time and concentration. Rat aortic rings (3 mm long) were incubated (37° C.) with 10 μM or 100 μM H—NR-1 either for 0.5 hr, 1 hr, 1.5 hr, 2 hr, 3 hr and then washed out with Krebs solution. To estimate the amount of H—NR-1 bound to tissue, aortic rings were placed in capillaries, and spectra EPR(X-band) were recorded.
FIG. 6. […] Rat aortic rings (3 mm long) with or without endothelium were incubated (37° C.) with 10 μM H—NR-1 for 1 hr and then washed out with Krebs solution. To estimate the amount of H—NR-1 bound to tissue, aortic rings were placed in capillaries and spectra EPR(X-band) were recorded at room temperature.
FIG. 12. […] Rat aortic rings (3 mm long) were incubated (37° C.) with 100 μM H—NR-2 for 1 hr and then washed out with Krebs solution. Rings were incubated with H—NR-2 along (A) or in the presence of 1 mM dextran (B), or in the presence of 10 mM dextran (C). To estimate the amount of H—NR-2 bound to tissue, aortic rings were placed in capillaries, and spectra EPR(X-band) were recorded.

[2] = known value; cited from earlier work
[3] = EPR spectra of H—NRs in aqueous solution (line width); assay type: physicochemical; conditions: 0.1 mM aqueous solutions, pH 7.4, room temperature, X-band
Procedure: FIG. 2. Spectra EPR of TEMPO and different H—NRs (0.1 mM aqueous solutions, pH 7.4). EPR spectra were recorded at room temperature using an X-band radiospectrometer MS200 (Magnettech GmbH, Berlin). Instrument parameters were 10 mW microwave power, 0.1 mT amplitude modulation, 100 kHz modulation frequency, sweep field 11 mT and 120 s sweep time.
The line widths of the EPR signals of all H—NRs were slightly broader in comparison to the EPR signal of TEMPOL, indicating slight decrease in the mobility of nitroxyl groups upon binding to heparin as well as spin-spin interactions between them. Thus, ΔH (in gauss) were 1.8, 2.1, 2.5, 2.0 and 2.5 for TEMPOL, H—NR-1, H—NR-2, H—NR-3 and H—NR-4, respectively. The line width the signal is critical for the in vivo EPR imaging. A narrower signal provides for better resolution, and is therefore preferred. As a result, the H—NR-3, in which nitroxide is bound to heparin via a linker, provides for a higher spectral mobility, and is thus preferred for EPR imaging.

Row | Compound | binding to rat aorta (EPR signal in tissue after wash) ([1]; aortic ring pre-incubated with 10 μM for 1 hour, washed 3 times with Krebs buffer) | half-life in vivo [2] | ΔH, line width of the EPR signal [3] [gauss] | replacement of heparin-nitroxide from heparin-binding sites of rat aorta by dextran [1] | replacement of heparin-nitroxide from heparin-binding sites of rat aorta by dextran ([1]; listed as Dextran)
1 | CC1(C)CC(O)CC(C)(C)N1[O] [TEMPOL, 4-hydroxy-2,2,6,6-tetramethylpiperidine-N-oxyl] | did not result in the appearance of the EPR signal in tissue | only a few minutes | 1.8 | – | –
2 | dextran | – | – | – | unable to replace heparin-nitroxide from the vascular tissue | unable to replace Heparin-nitroxide

— patent US20100310471A1, “ANTIOXIDANT AND PARAMAGNETIC HEPARIN-NITROXIDE DERIVATIVES” (Johannes Gutenberg-Universität Mainz, priority 2007, published 2010)
